# Source: patent US20240285671A1, “SEQUENTIAL INNATE AND ADAPTIVE IMMUNE MODULATION FOR CANCER TREATMENT” (Gentechnologiestiftung- Dr. Georg und Ingeburg Scheel …, priority 2021, published 2024)
# Like-named read-outs stand apart in the source and are kept apart here. Marks after values point to notes of the source that are not given here.
# Experiments:
# [1] = system: extensive stage small cell lung cancer; details: IMpower133 treatment arm, ITT, with chemotherapy; cited from earlier work
# [2] = system: extensive stage small cell lung cancer; details: CASPIAN treatment arm, ITT, with chemotherapy; cited from earlier work
# [3] = system: Regulatory T cells (% of CD4+ T cells); assay: Regulatory T cells in blood of IMPULSE patients, flow cytometry; format: in vivo, human
# [4] = system: extensive stage small cell lung cancer; assay: IMPULSE phase II trial (NCT02200081), switch maintenance vs continuation maintenance, survival; format: in vivo, human
# From the text: An international, multicentre, open-label phase II trial conducted on 102 extensive stage small cell lung cancer after platinum based first line therapy patients. Patients who had received four cycles of first line induction chemotherapy (platinum-based) were randomized to receive either combination lefitolimod maintenance therapy, or local standard of care (control). After progression, patients received second line therapy.
# The phase II IMPULSE study explored the benefit in OS of an immunotherapeutic switch maintenance therapy of ES-SCLC by the TLR9 agonist lefitolimod (dSLIM-30L1). In comparison to the various local standards of care (SoC), typically carboplatin plus etoposide, or cisplatin plus etoposide. […] A combinatorial post hoc analyses was performed of all accessible immunological data and relevant clinical parameters of the IMPLUSE study. Additionally, in order to determine in what conditions adaptive or innate immune stimulation may enhance chemotherapy outcomes, published mPFS and mOS data from the respective treatment and control arms for chemotherapy immunomodulation maintenance studies utilizing PD-L1 inhibitor-antibodies were incorporated, comparing the use of checkpoint inhibitors with the TLR9 agonist used in IMPULSE.
# All lung cancer trials used (IMPULSE, IMpower133, CASPIAN, Keynote-604, and EA5161) are “maintenance” trials, wherein an immune induction treatment, a set of chemotherapy cycles, is applied to initiate anti-tumour responses (as defined by RECIST guidelines), followed by maintenance therapy until tumour progress. IMpower133, CASPIAN, Keynote-604, and EA5161 are “continuation maintenance” trials, whereas IMPULSE is a “switch maintenance” trial. In the four continuation maintenance trials, the immunomodulatory product (IMP), i.e., the respective […] checkpoint inhibitors (CPI) atezolizumab, durvalumab, pembrolizumab, or nivolumab, are present during induction chemotherapy and in the maintenance phase. In the switch maintenance trial IMPULSE, the IMP lefitolimod is not used during induction chemotherapy but introduced (“switched” to) in the maintenance phase of the trial (FIG. 1). Thus, for comparison of IMPULSE PFS and OS data with the other studies, IMPULSE mPFS1 and mOS1 were factored from the start of induction chemotherapy. Therefore, for all following analyses, the respective mOS1 values of IMPULSE are used.
# [5] = system: metastatic colorectal cancer; assay: IMPALA phase III trial (NCT02077868), progression-free survival; format: in vivo, human
# From the text: An international, multicentre, open-label phase III trial conducted on 549 metastatic colorectal cancer patients in 8 EU countries. […] After progression, patients started re-induction therapy, with those in the experimental arm continuing to receive lefitolimod in addition.
# [6] = system: extensive stage small cell lung cancer; details: EA5161 treatment arm, ITT, with chemotherapy; cited from earlier work
# [7] = system: extensive stage small cell lung cancer; details: Keynote-604 treatment arm, ITT, with chemotherapy; cited from earlier work
# [8] = Baseline, end of 4th cycle of induction PE chemotherapy
# [9] = Visit 2, days 118-125 from start of induction PE chemotherapy
# [10] = Visit 3, days 146-153 from start of induction PE chemotherapy
# [11] = Visit 4, days 188-195 from start of induction PE chemotherapy
substance,measurement,setting,value
"Atezolizumab: PD-L1 inhibiting antibody (Roche AG; CAS No. 1380723-44-3), IMpower133 trial",mOS treatment,[1],12.3 m
"Durvalumab: PD-L1 inhibiting antibody (Astra Zeneca, CAS No. 1428935-60-7), CASPIAN trial",mOS treatment,[2],13.0 m
Lefitolimod,"Regulatory T cells, Max",[3]; [8],12.22 % of CD4+ T cells
same,"Regulatory T cells, Mean",[3]; [8],7.3905 % of CD4+ T cells
same,"Regulatory T cells, Median",[3]; [8],7.470 % of CD4+ T cells
same,"Regulatory T cells, Min",[3]; [8],4.19 % of CD4+ T cells
same,"Regulatory T cells, Max",[3]; [9],13.65 % of CD4+ T cells
same,"Regulatory T cells, Mean",[3]; [9],8.2827 % of CD4+ T cells
same,"Regulatory T cells, Median",[3]; [9],8.100 % of CD4+ T cells
same,"Regulatory T cells, Min",[3]; [9],4.44 % of CD4+ T cells
same,"Regulatory T cells, Max",[3]; [10],13.06 % of CD4+ T cells
same,"Regulatory T cells, Mean",[3]; [10],8.7502 % of CD4+ T cells
same,"Regulatory T cells, Median",[3]; [10],8.905 % of CD4+ T cells
same,"Regulatory T cells, Min",[3]; [10],4.27 % of CD4+ T cells
same,"Regulatory T cells, Max",[3]; [11],16.33 % of CD4+ T cells
same,"Regulatory T cells, Mean",[3]; [11],9.5175 % of CD4+ T cells
same,"Regulatory T cells, Median",[3]; [11],9.205 % of CD4+ T cells
same,"Regulatory T cells, Min",[3]; [11],5.82 % of CD4+ T cells
same,fraction of regulatory T cells (Treg),"[3]; over duration of treatment, IMPULSE",increases with duration
same,mOS treatment,"[4]; IMPULSE treatment arm, ITT, mOS1 calculated from start of induction chemotherapy",12.4* m
same,gain in mOS,"[4]; OS1, 5 cycles vs 4 cycles of PE chemotherapy followed by TLR9 agonist (FIG. 2)",2.3 m
same,efficacy in terms of mOS,"[4]; applied subsequent to platinum-based chemotherapy rather than in combination, IMPULSE compared to IMPALA",more efficacious
same,mOS improved by,[4]; four qw3 PE cycles followed by a 5th cycle with PE in week 1 and TLR9 agonist in weeks 2 and 3 (FIG. 2),2.3 months
same,PFS1,[4]; full analysis set (FAS),6.1 months
same,mOS1,[4]; patient subgroup (FIG. 6),10.7 months
same,mOS1,[4]; patient subgroup with PFS threshold >6.2 months (FIG. 6),17.1 months
same,benefit by mPFS or mOS compared to local standards of care,"[4]; switch maintenance therapy, all patients",No additional benefit
same,median OS in certain subgroups of patients,"[4]; switch maintenance therapy, subgroups",strong median OS improvements
same,mPFS compared to control,[5]; patients receiving re-induction treatment followed by cycles of chemotherapy and lefitolimod,significantly superior
same,mPFS compared to the control arm,[5]; switch-maintenance therapy,inferior
"Nivolumab: checkpoint inhibitor antibody (Bristol-Myers Squibb; CAS No 946414-94-4), EA5161 trial",mOS treatment,[6],11.3 m
"Pembrolizumab: checkpoint inhibitor antibody (Merck Inc.; CAS No. 1374853-91-4), Keynote-604 trial",mOS treatment,[7],10.8 m
